Measured values from patent publication US11439637B2, “Antiproliferative compounds and bispecific antibody against BCMA and CD3 for combined use” (Celgene Corporation, priority 2018, dated 2022).
“Also recorded” adds a separate entry of the source.

Tests used:
[1] = test system: acute myeloid leukemia (AML); settings: administered alone; cited from earlier work
[2] = test system: multiple myeloma H929 cell line; assay: Co-cultures of effector T cells and target cells after pretreatment with compounds, bispecific antibody-induced target cell killing (H929); format: cell-based, human; settings: H929 target cells pretreated with Compound 2 (1 nM) for 72 hours, washed; co-culture 72 hours, E:T 1:3; vs DMSO
Description: (§1) CD3+ T-cells were isolated from peripheral blood mononuclear cell fractions from healthy donors using magnetic-activated cell sorting. Cells were thawed in RPMI 1640 culture media supplemented with 10% (v/v) fetal bovine serum (FBS), non-essential amino acids and sodium pyruvate. All cell cultures and cell treatments were performed in a 37° C., 5% CO2 incubator for time periods as indicated. T-cells were then labeled with CFSE (carboxyfluorescein succinimidyl ester) according to the manufacturer's instructions, and allowed to recover overnight in the presence of 1 ng/mL human IL-7. T-cells were treated with DMSO (control) or Compound 2 as single agent for 16 hours before co-culture. The multiple myeloma H929 and OPM-2 cell lines or the plasma cell leukemia (PCL) cell line L363 were labeled with CellTrace™ Violet, then pretreated with DMSO (control) or Compound 2 as a single agent for 72 hours. T-cells and target cells were then washed to remove compounds and co-cultured in the presence of increasing concentrations of a bispecific antibody specifically binding to human B cell maturation antigen (BCMA) and to human CD3ε (CD3) as provided herein, for 72 hours, at different effector T-cell (E) to target cell (T) ratios. […]

[3] = test system: plasma cell leukemia (PCL) cell line L363; assay: Co-cultures of effector T cells and target cells after pretreatment with compounds, bispecific antibody-induced target cell killing (L363); format: cell-based, human; settings: L363 target cells pretreated with Compound 2 (1 nM) for 72 hours, washed; co-culture 72 hours, E:T 1:1; vs DMSO
Description: as §1

[4] = test system: multiple myeloma OPM-2 cell line; assay: Co-cultures of effector T cells and target cells after pretreatment with compounds, cytotoxicity assays with OPM-2 cells; format: cell-based, human; settings: E:T 1:5
Description: CD3+ T-cells were isolated from peripheral blood mononuclear cell fractions from healthy donors using magnetic-activated cell sorting. Cells were thawed in RPMI 1640 culture media supplemented with 10% (v/v) fetal bovine serum (FBS), non-essential amino acids and sodium pyruvate. All cell cultures and cell treatments were performed in a 37° C., 5% CO2 incubator for time periods as indicated. T-cells were then labeled with CFSE (carboxyfluorescein succinimidyl ester) according to the manufacturer's instructions, and allowed to recover overnight in the presence of 1 ng/mL human IL-7. T-cells were treated with DMSO (control) or Compound 2 as single agent for 16 hours before co-culture. The multiple myeloma H929 and OPM-2 cell lines or the plasma cell leukemia (PCL) cell line L363 were labeled with CellTrace™ Violet, then pretreated with DMSO (control) or Compound 2 as a single agent for 72 hours. T-cells and target cells were then washed to remove compounds and co-cultured in the presence of increasing concentrations of a bispecific antibody specifically binding to human B cell maturation antigen (BCMA) and to human CD3ε (CD3) as provided herein, for 72 hours, at different effector T-cell (E) to target cell (T) ratios. The cells were collected at the end of co-culture for analysis of target cell apoptosis and necrosis by flow cytometry using APC Annexin V Apoptosis Detection Kit with 7-AAD, following the manufacturer's directions (BioLegend).

[5] = test system: multiple myeloma H929 cell line; assay: Co-cultures of effector T cells and target cells with concurrent compound treatments; format: cell-based, human; settings: concurrent exposure to Compound 2 (1 nM) for 72 hours, T-cells of three donors, E:T 1:3, vs DMSO
Description: CD3+ T-cells were isolated from peripheral blood mononuclear cell fractions from three different healthy donors (donors A, B and C) using magnetic-activated cell sorting. Cells were thawed in RPMI 1640 culture media supplemented with 10% (v/v) FBS, non-essential amino acids, sodium pyruvate and penicillin/streptomycin. All cell cultures and treatments were performed in a 37° C., 5% CO2 incubator for time periods as indicated. T-cells were then labeled with CFSE (carboxyfluorescein succinimidyl ester) according to the manufacturer's instructions, and allowed to recover overnight in the presence of 1 ng/mL human IL-7. The multiple myeloma H929 cell line was labeled with CellTrace™ Violet, and allowed to recover overnight. T-cells and target cells were then washed and co-cultured in the presence of increasing concentrations of bispecific antibody specifically binding to human B cell maturation antigen (BCMA) and to human CD3ε (CD3) provided herein, for 72 hours, at a fixed effector T-cell (E) to target cell (T) ratio of 1:3. Co-cultures in the presence of bispecific antibody were performed in the presence of DMSO (control) or Compound 2. Cells were collected at the end of co-culture for analysis of target cell apoptosis and necrosis by flow cytometry using APC Annexin V Apoptosis Detection Kit with 7-AAD.

[6] = test system: lenalidomide-resistant multiple myeloma cell line H929-1051; assay: Co-cultures of effector T cells and lenalidomide-resistant multiple myeloma target cells after pretreatment with compounds; format: cell-based, human; settings: H929-1051 target cells pretreated 72 hours with Compound 2 (1 nM) or pomalidomide (100 nM), washed; co-culture 72 hours, E:T 1:3; vs DMSO
Description: Co-cultures of effector T cells (E) and lenalidomide-resistant multiple myeloma target cells (T) after pretreatment with compounds. CD3+ T-cells were isolated from peripheral blood mononuclear cell fractions from three different healthy donors (donors D, E and F) using magnetic-activated cell sorting. Cells were thawed in RPMI 1640 culture media supplemented with 10% (v/v) fetal bovine serum (FBS), non-essential amino acids, sodium pyruvate and penicillin/streptomycin. All cell cultures and cell treatments were performed in a 37° C., 5% CO2 incubator for time periods as indicated. T-cells were then labeled with CFSE (carboxyfluorescein succinimidyl ester) according to the manufacturer's instructions, and allowed to recover overnight in the presence of 1 ng/mL human IL-7. The lenalidomide-resistant multiple myeloma cell line H929-1051 was generated by long-term culture in the presence of increasing concentrations of lenalidomide, as previously described (Ghandi et al. Br. J. Haematol. 2014 January; 164(2):233-44) using methods described (Lopez-Girona et al. Leukemia. 2012 November; 26(11):2326-35). H929-1051 cells were labeled with CellTrace™ Violet, then pretreated with DMSO (control), pomalidomide, or Compound 2 as a single agent for 72 hours. T-cells and target cells were then washed to remove compounds and co-cultured in the presence of increasing concentrations of the bispecific antibody specifically binding to human B cell maturation antigen (BCMA) and to human CD3ε (CD3) as provided herein, for 72 hours, at a fixed effector T-cell (E) to target cell (T) ratio of 1:3. The cells were collected at the end of co-culture for analysis of target cell apoptosis and necrosis by flow cytometry using APC Annexin V Apoptosis Detection Kit with 7-AAD, following the manufacturer's directions (BioLegend).

[7] = combination of effector T-cell pretreatment and target cell pretreatment with Compound 2 (1 nM)
[8] = either effector T-cells (16 hours) or target cells (72 hours) alone pretreated with Compound 2 (1 nM)

Compound	response in treating acute myeloid leukemia (AML) at relapse [1]	maximal target cell killing induced by the bispecific antibody [2]	potency of the bispecific antibody [2]	potency of the bispecific antibody [3]	efficacy of the bispecific antibody [4, 7]	potentiation of the bispecific antibody [4, 7]	efficacy of target cell killing by the bispecific antibody [4, 8]	potency of target cell killing by the bispecific antibody [4, 8]	maximal efficacy of target cell killing mediated by the bispecific antibody [5]	potency of the bispecific antibody [5]	maximal target cell killing induced by the bispecific antibody [6]	potency of the bispecific antibody [6]
CT-011: anti-PD-1 antibody, a humanized antibody	failed to show response											
N#Cc1ccc(N2CCN(Cc3ccc(COc4cccc5c4CN([C@H]4CCC(=O)NC4=O)C5=O)cc3)CC2)c(F)c1 [Compound 2, (S)-4-(4-(4-(((2-(2,6-dioxopiperidin-3-yl)-1-oxoisoindolin-4-yl)oxy)methyl)benzyl)piperazin-1-yl)-3-fluorobenzonitrile]		significantly increased	significantly increased	significantly increased	increase in efficacy	greatest potentiation	increased	increased	improved; also recorded: enhances	significantly increased; also recorded: enhances	increased; also recorded: enhances	increased; also recorded: enhances
Nc1cccc2c1C(=O)N(C1CCC(=O)NC1=O)C2=O (stereo not shown) [pomalidomide, reference compound]											not	
